Among the data in patent US20230011571A1, “SMALL MOLECULE FURIN INHIBITORS FOR TREATING INFECTIOUS DISEASES” (BP Asset V, Inc., priority 2019, published 2023) are inhibition values, retold here.

What all share (assay type): cell-based
The test system of one assay is dengue virus (DENV). Put plainly: microbe, parasite or virus in culture. Conditions: Dengue virus, Vero, 120 h, read-out: Percent viral inhibition DENY.
For assay [1], the system named is Chikungunya virus (CHIKV). Put plainly: microbe, parasite or virus in culture. Conditions: Chikungunya virus, Vero, 48 h, read-out: Percent viral inhibition CHKV.
The subject of a further assay is Marburg virus (MARV). Put plainly: organism not typed. Conditions: Vero, 72 h, read-out: Percent viral inhibition MARV.

As usually defined, the inhibition is how much of the control response was suppressed. Consider `CN1CCN(c2ncc(Oc3cc(-c4cc(Cl)cc(Cl)c4)cc(CN4CCC(CC(=O)O)CC4)c3F)cn2)CC1` [Example 376, 2-(1-((3′,5′-dichloro-4-fluoro-5-((2-(4-methylpiperazin-1-yl)pyrimidin-5-yl)oxy)-[1,1′-biphenyl]-3-yl)methyl)piperidin-4-yl)acetic acid], for which the values for the inhibition at 1 µM (in the assay with dengue virus (DENV); in assay [1]; in the assay with Marburg virus (MARV)) were 0%, 13.5% and 12.7%, respectively.

Regarding `CC(=O)NCC1CCN(Cc2cc(Oc3ccc(N4CCNC(CO)C4)nc3)nc(-c3cc(Cl)cc(Cl)c3)c2)CC1` (stereo not drawn) [Example 195, N-((1-((2-(3,5-dichlorophenyl)-6-((6-(3-(hydroxymethyl)piperazin-1-yl)pyridin-3-yl)oxy)pyridin-4-yl)methyl)piperidin-4-yl)methyl)acetamide], the results for the inhibition at 1 µM (in the assay with dengue virus (DENV); in assay [1]; in the assay on Marburg virus (MARV)) were 39.4%, 18.1% and 38.2%, respectively.

In the case of `CC(=O)NCC1CCN(Cc2cc(Oc3cnc(N4CCN(CCC(C)C(=O)O)CC4)cn3)nc(-c3cc(Cl)cc(Cl)c3)c2)CC1` (stereo not drawn) [Example 396, 4-(4-(5-((4-((4-(acetamidomethyl)piperidin-1-yl)methyl)-6-(3,5-dichlorophenyl)pyridin-2-yl)oxy)pyrazin-2-yl)piperazin-1-yl)-2-methylbutanoic acid], the inhibition at 1 µM came out at 46.3% in the assay with dengue virus (DENV), 21.5% in assay [1] and 26.7% in the assay on Marburg virus (MARV).

On to `CC(=O)NCC1CCN(Cc2cc(Oc3ccc(N4C[C@H]5CC[C@@H](C4)N5CCC(=O)O)nc3)nc(-c3cc(Cl)cc(Cl)c3)c2)CC1` [Example 185, 3-((1R,5S)-3-(5-((4-((4-(acetamidomethyl)piperidin-1-yl)methyl)-6-(3,5-dichlorophenyl)pyridin-2-yl)oxy)pyridin-2-yl)-3,8-diazabicyclo[3.2.1]octan-8-yl) propanoic acid], for which the inhibition at 1 µM with dengue virus (DENV) worked out at 0%; in assay [1] it was 22.9%; in the assay on Marburg virus (MARV) it was 64.2%.

For `CC(=O)N[C@H]1[C@@H]2CCN(Cc3cc(Oc4cnc(N5CCN(CCC(=O)O)CC5)nc4)nc(-c4cc(Cl)cc(Cl)c4)c3)CC[C@@H]21` [Example 367, 3-(4-(5-((4-(((1R,7S,8r)-8-acetamido-4-azabicyclo[5.1.0]octan-4-yl)methyl)-6-(3,5-dichlorophenyl)pyridin-2-yl)oxy)pyrimidin-2-yl)piperazin-1-yl)propanoic acid], the values for the inhibition at 1 µM (in the assay on dengue virus (DENV); in assay [1]; in the assay on Marburg virus (MARV)) were 15%, 27.4% and 54.7%, respectively.

As to `O=C(O)CC1CCN(Cc2cc(Oc3cnc(N4CC5CCC(C4)N5)nc3)nc(-c3cc(Cl)cc(Cl)c3)c2)CC1` [Example 163, 2-(1-((2-((2-(3,8-diazabicyclo[3.2.1]octan-3-yl)pyrimidin-5-yl)oxy)-6-(3,5-dichlorophenyl)pyridin-4-yl)methyl)piperidin-4-yl)acetic acid], the inhibition at 1 µM in the assay with dengue virus (DENV) was 32.5%; in assay [1] it was 22%; in the assay on Marburg virus (MARV) it was 34.4%.

`CC(=O)NCC1CCN(Cc2cc(Oc3cnc(N4CCN(CCC(N)=O)CC4)nc3)nc(-c3cc(F)c(F)c(Cl)c3)c2)CC1` [Example 273]: the results for the inhibition at 1 µM (in the assay with dengue virus (DENV); in assay [1]; with Marburg virus (MARV)) were 25.4%, 23.4% and 58.5%, respectively.

For the molecule `CN1CCN(c2ncc(Oc3cc(CN4CCC(CCB(O)O)CC4)cc(-c4cc(Cl)cc(Cl)c4)n3)cn2)CC1` [Example 323, (2-(1-((2-(3,5-dichlorophenyl)-6-((2-(4-methylpiperazin-1-yl)pyrimidin-5-yl)oxy)pyridin-4-yl)methyl)piperidin-4-yl)ethyl)boronic acid], the inhibition at 1 µM amounted to 0% in the assay on dengue virus (DENV), 5.87% in assay [1] and 30.7% with Marburg virus (MARV).

Regarding `CC(CC1CCN(Cc2cc(Oc3cnc(N4CCNCC4)nc3)nc(-c3cc(Cl)cc(Cl)c3)c2)CC1)C(=O)O` (stereo not drawn) [Example 269, 3-(1-((2-(3,5-dichlorophenyl)-6-((2-(piperazin-1-yl)pyrimidin-5-yl)oxy)pyridin-4-yl)methyl)piperidin-4-yl)-2-methylpropanoic acid], the inhibition at 1 µM came to 39.5% with dengue virus (DENV), 24.5% in assay [1] and 35% in the assay on Marburg virus (MARV).

`CNC(=O)NCC1CCN(Cc2cc(Oc3cnc(N4CCN(CCCO)CC4)nc3)nc(-c3cc(Cl)cc(Cl)c3)c2)CC1` [Example 171, 1-((1-((2-(3,5-dichlorophenyl)-6-((2-(4-(3-hydroxypropyl)piperazin-1-yl)pyrimidin-5-yl)oxy)pyridin-4-yl)methyl)piperidin-4-yl)methyl)-3-methylurea]: the inhibition at 1 µM was determined as 41.7% with dengue virus (DENV), 0% in assay [1] and 0% in the assay on Marburg virus (MARV).

In the case of `CC(=O)NCC1CCN(Cc2cc(Oc3cnc(N4CCN(C(C)CCS(C)(=O)=O)CC4)nc3)nc(-c3cc(Cl)cc(Cl)c3)c2)CC1` (stereo not drawn) [Example 19, N-((1-((2-(3,5-dichlorophenyl)-6-((2-(4-(4-(methylsulfonyl)butan-2-yl)piperazin-1-yl)pyrimidin-5-yl)oxy)pyridin-4-yl)methyl)piperidin-4-yl)methyl)acetamide], the inhibition at 1 µM is 35.5% in the assay on dengue virus (DENV), 21.6% in assay [1] and 79.8% in the assay with Marburg virus (MARV).

`O=C(O)CC1CCN(Cc2cc(Oc3cnc(N4CC5CNCC5C4)nc3)nc(-c3cc(Cl)cc(Cl)c3)c2)CC1` (stereo not drawn) [Example 161, 2-(1-((2-(3,5-dichlorophenyl)-6-((2-(hexahydropyrrolo[3,4-c]pyrrol-2(1H)-yl)pyrimidin-5-yl)oxy)pyridin-4-yl)methyl)piperidin-4-yl)acetic acid]: the inhibition at 1 µM with dengue virus (DENV) was found to be 33%; in assay [1], 28.5%; with Marburg virus (MARV) it was 44.9%.

As for `CNC(=O)NCC1CCN(Cc2cc(Oc3cnc(N4CCN(CCOC)CC4)nc3)nc(-c3cc(Cl)cc(Cl)c3)c2)CC1` [Example 262, 1-((1-((2-(3,5-dichlorophenyl)-6-((2-(4-(2-methoxyethyl)piperazin-1-yl)pyrimidin-5-yl)oxy)pyridin-4-yl)methyl)piperidin-4-yl)methyl)-3-methylurea], the inhibition at 1 µM in the assay with dengue virus (DENV) turned out to be 10.3%; in assay [1], 19%; in the assay with Marburg virus (MARV), 39.3%.

On to `CC(CCN1CCN(c2ncc(Oc3cc(CN4CCCC4)cc(-c4cc(Cl)cc(Cl)c4)n3)cn2)CC1)C(=O)O` (stereo not drawn) [Example 83, 4-(4-(5-((6-(3,5-dichlorophenyl)-4-(pyrrolidin-1-ylmethyl)pyridin-2-yl)oxy)pyrimidin-2-yl)piperazin-1-yl)-2-methylbutanoic acid], for which the inhibition at 1 µM in the assay on dengue virus (DENV) was 28.9%; in assay [1], 33.4%; in the assay on Marburg virus (MARV), 53.8%.

With `CNC(=O)OCC1CCN(Cc2cc(Oc3cnc(N4CCN(C)CC4)nc3)nc(-c3cc(Cl)cc(Cl)c3)c2)CC1` [Example 66, (1-((2-(3,5-dichlorophenyl)-6-((2-(4-methylpiperazin-1-yl)pyrimidin-5-yl)oxy)pyridin-4-yl)methyl)piperidin-4-yl)methylmethylcarbamate], the results for the inhibition at 1 µM (in the assay with dengue virus (DENV); in assay [1]; in the assay on Marburg virus (MARV)) were 57.9%, 7.64% and 60.7%, respectively.

In the case of `CC(=O)NCC1CCN(Cc2cc(Oc3ccc(N4CCN(CCN(C)S(C)(=O)=O)CC4)nc3)nc(-c3cc(Cl)cc(Cl)c3)c2)CC1` [Example 32, N-((1-((2-(3,5-dichlorophenyl)-6-((6-(4-(2-(N-methylmethylsulfonamido)ethyl)piperazin-1-yl)pyridin-3-yl)oxy)pyridin-4-yl)methyl)piperidin-4-yl)methyl)acetamide], the inhibition at 1 µM in the assay with dengue virus (DENV) came out at 34.2%; in assay [1], 49.4%; in the assay on Marburg virus (MARV), 63.5%.

For `CC(=O)NCC1CCN(Cc2cc(Oc3ccc(N4CCN(CCC(N)=O)CC4)nc3)nc(-c3cc(Cl)cc(Cl)c3)c2)CC1` [Example 13, 3-(4-(5-((4-((4-(acetamidomethyl)piperidin-1-yl)methyl)-6-(3,5-dichlorophenyl)pyridin-2-yl)oxy)pyridin-2-yl)piperazin-1-yl)propanamide], the inhibition at 1 µM in the assay with dengue virus (DENV) came out at 26.5%; in assay [1] it was 15.9%; in the assay with Marburg virus (MARV), 25.4%.

Consider `CNC(=O)NCC1CCN(Cc2cc(Oc3cnc(N4CCN(CCC(N)=O)CC4)nc3)nc(-c3cc(Cl)cc(Cl)c3)c2)CC1` [Example 261, 3-(4-(5-((6-(3,5-dichlorophenyl)-4-((4-((3-methylureido)methyl)piperidin-1-yl)methyl)pyridin-2-yl)oxy)pyrimidin-2-yl)piperazin-1-yl) propanamide], for which the inhibition at 1 µM was 53.6% with dengue virus (DENV), 0.69% in assay [1] and 56.8% in the assay on Marburg virus (MARV).

`CNC(=O)OCC1CCN(Cc2cc(Oc3cnc(N4CCN(CCC(=O)O)CC4)nc3)nc(-c3cc(Cl)cc(Cl)c3)c2)CC1` [Example 248, 3-(4-(5-((6-(3,5-dichlorophenyl)-4-((4-(((methylcarbamoyl)oxy)methyl)piperidin-1-yl)methyl)pyridin-2-yl)oxy)pyrimidin-2-yl)piperazin-1-yl) propanoic acid]: the inhibition at 1 µM in the assay on dengue virus (DENV) is 81.2%; in assay [1] it was 34.8%; in the assay with Marburg virus (MARV) it was 49.6%.

As for `C[C@@H](CC1CCN(Cc2cc(Oc3ccc(N4CCN(C)CC4)nn3)nc(-c3cc(Cl)cc(Cl)c3)c2)CC1)C(=O)O` [Example 365, (S)-3-(1-((2-(3,5-dichlorophenyl)-6-((6-(4-methylpiperazin-1-yl)pyridazin-3-yl)oxy)pyridin-4-yl)methyl)piperidin-4-yl)-2-methylpropanoic acid], the inhibition at 1 µM came to 32.4% in the assay on dengue virus (DENV), 0% in assay [1] and 17.4% in the assay on Marburg virus (MARV).

For `CNC(=O)NCC1CCN(Cc2cc(Oc3ccc(N4CCN(CCCS(C)(=O)=O)CC4)nc3)nc(-c3cc(Cl)cc(Cl)c3)c2)CC1` [Example 255, 1-((1-((2-(3,5-dichlorophenyl)-6-((6-(4-(3-(methylsulfonyl)propyl)piperazin-1-yl)pyridin-3-yl)oxy)pyridin-4-yl)methyl)piperidin-4-yl)methyl)-3-methylurea], the results for the inhibition at 1 µM (in the assay on dengue virus (DENV); in assay [1]; in the assay on Marburg virus (MARV)) were 10.3%, 16.1% and 40.1%, respectively.
